Results as given in patent publication US20060069132A1, “Azolecarboxamide herbicides” (priority 2004, published 2006).

Columns and labels:
barnyardgrass [1] = assay: Test B pre-/postemergence herbicide test; format: in vivo, Echinochloa crus-galli; conditions: for Plant response rating, Barnyardgrass: preemergence; for Barnyardgrass plant response rating: postemergence, visual rating, scale 0 (no effect) to 100 (complete control)
Method in brief: (§1)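 Flooded paddy rice and barnyardgrass were treated at the 2-leaf stage; upland plantings received compound either on sown seed or on 1- to 4-leaf seedlings. All were kept 13–15 days in a greenhouse and scored visually, 0–100, relative to untreated plants.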

Surinam grass = assay: Test B pre-/postemergence herbicide test; format: in vivo, Urochloa decumbens; conditions: for Plant response rating, Surinam Grass: preemergence; for Surinam Grass plant response rating: postemergence, visual rating, scale 0 (no effect) to 100 (complete control)
Method in brief: (§2)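 Pre: seeds sown, then sprayed. Post: 1–4-leaf plants (2–18 cm) sprayed at the same time. Paddy: flooded, treated at 2-leaf stage. Formulation: non-phytotoxic solvent with surfactant. Greenhouse 13–15 days; visual 0–100 score relative to controls.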

cocklebur = assay: Test B pre-/postemergence herbicide test; format: in vivo, Xanthium strumarium; conditions: for Plant response rating, Cocklebur: preemergence; for Cocklebur plant response rating: postemergence, visual rating, scale 0 (no effect) to 100 (complete control)
Method in brief: as §1

corn = assay: Test B pre-/postemergence herbicide test; format: in vivo, Zea mays; conditions: for Plant response rating, Corn: preemergence; for Corn plant response rating: postemergence, visual rating, scale 0 (no effect) to 100 (complete control)
Method in brief: as §2

large crabgrass = assay: Test B pre-/postemergence herbicide test; format: in vivo, Digitaria sanguinalis; conditions: for Plant response rating, Crabgrass, Large: preemergence; for Crabgrass, Large plant response rating: postemergence, visual rating, scale 0 (no effect) to 100 (complete control)
Method in brief: as §2

giant foxtail = assay: Test B pre-/postemergence herbicide test; format: in vivo, Setaria faberi; conditions: for Plant response rating, Foxtail, Giant: preemergence; for Foxtail, Giant plant response rating: postemergence, visual rating, scale 0 (no effect) to 100 (complete control)
Method in brief: as §2

lambsquarters = assay: Test B pre-/postemergence herbicide test; format: in vivo, Chenopodium album; conditions: for Plant response rating, Lambsquarters: preemergence; for Lambsquarters plant response rating: postemergence, visual rating, scale 0 (no effect) to 100 (complete control)
Method in brief: as §2

morningglory = assay: Test B pre-/postemergence herbicide test; format: in vivo, Ipomoea coccinea; conditions: for Plant response rating, Morningglory: preemergence; for Morningglory plant response rating: postemergence, visual rating, scale 0 (no effect) to 100 (complete control)
Method in brief: as §1

pigweed = assay: Test B pre-/postemergence herbicide test; format: in vivo, Amaranthus retroflexus; conditions: for Plant response rating, Pigweed: preemergence; for Pigweed plant response rating: postemergence, visual rating, scale 0 (no effect) to 100 (complete control)
Method in brief: as §2

rice [2] = assay: Test B pre-/postemergence herbicide test; format: in vivo, Oryza sativa; conditions: 500 g ai/ha; visual rating 0-100, 0 no effect, 100 complete control; preemergence
Method in brief: as §2

velvetleaf = assay: Test B pre-/postemergence herbicide test; format: in vivo, Abutilon theophrasti; conditions: for Plant response rating, Velvetleaf: preemergence; for Velvetleaf plant response rating: postemergence, visual rating, scale 0 (no effect) to 100 (complete control)
Method in brief: as §2

blackgrass = assay: Test B postemergence herbicide test; format: in vivo, Alopecurus myosuroides; conditions: postemergence, 500 g ai/ha; visual rating, scale 0 (no effect) to 100 (complete control)
Method in brief: (§3)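 After treating 2-leaf paddy plants or 2–18 cm postemergence plants (1 to 4 leaves) with formulated chemical, researchers kept them in a greenhouse for 13–15 days. Effects were judged visually versus controls: 0 indicates none, 100 total control.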

wheat = assay: Test B postemergence herbicide test; format: in vivo, Triticum aestivum; parameters: key to Wheat plant response rating: 0 = no effect, 100 = complete control; conditions: postemergence, 500 g ai/ha; visual rating, scale 0 (no effect) to 100 (complete control)
Method in brief: (§4)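 Treated at 2-leaf (paddy) or 1–4-leaf, 2–18 cm (postemergence); greenhouse 13–15 d; visual score vs control, 0 none to 100 complete control; dash = not tested.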

wild oat = assay: Test B postemergence herbicide test; format: in vivo, Avena fatua; conditions: postemergence, visual rating, scale 0 (no effect) to 100 (complete control)
Method in brief: as §4

rice [3] = assay: Test B flooded paddy test; format: in vivo, Oryza sativa; conditions: 1000 g ai/ha, visual rating, scale 0 to 100 (0 no effect, 100 complete control), 13 to 15 days
Method in brief: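 Plants grow to 1- to 4-leaf stage (2–18 cm) for postemergence spraying, or to 2-leaf stage for the paddy test. Formulated compound is applied. Greenhouse holding lasts 13–15 days. Response is scored visually relative to controls, 0 no effect to 100 complete control; a dash means no result.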

[4] = test system: small flower umbrella sedge; assay: Test B flooded paddy test; format: in vivo, Cyperus difformis; conditions: 1000 g ai/ha, visual rating, scale 0 to 100 (0 no effect, 100 complete control), 13 to 15 days
Method in brief: as §3

ducksalad [5] = assay: Test B flooded paddy test; format: in vivo, Heteranthera limosa; conditions: 1000 g ai/ha, visual rating, scale 0 to 100 (0 no effect, 100 complete control), 13 to 15 days
Method in brief: as §3

barnyardgrass [6] = assay: Test B flooded paddy test; format: in vivo, Echinochloa crus-galli; conditions: 1000 g ai/ha, visual rating, scale 0 to 100 (0 no effect, 100 complete control), 13 to 15 days
Method in brief: as §3

rice [7] = assay: Test C flooded paddy test; format: in vivo, Oryza sativa
Method in brief: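 Postemergence sprays applied to plants 2 to 18 cm tall (1- to 4-leaf stage); paddy species grown to 2-leaf stage under flooding. After 12 to 14 days in greenhouse, visual rating versus untreated controls on 0–100 scale (0 no effect, 100 complete control).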

[8] = test system: smallflower umbrella sedge; assay: Test C flooded paddy test; format: in vivo, Cyperus difformis
ducksalad [9] = assay: Test C flooded paddy test; format: in vivo, Heteranthera limosa
barnyardgrass [10] = assay: Test C flooded paddy test; format: in vivo, Echinochloa crus-galli
Method in brief: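 After a postemergence application at 1 to 4 leaves (plants 2–18 cm high), or at 2 leaves for barnyardgrass in flooded paddy, plants stayed in the greenhouse for 12 to 14 days. Damage was then judged visually relative to control plants, with 100 indicating complete control.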

[11] = 500 g ai/ha, visual rating 0-100, 0 no effect, 100 complete control
[12] = 125 g ai/ha, 0 to 100 scale, 0 is no effect, 100 is complete control
[13] = 62 g ai/ha, scale 0 to 100 (0 no effect, 100 complete control)
[14] = 125 g ai/ha, scale 0 to 100 (0 no effect, 100 complete control)
[15] = 250 g ai/ha, scale of 0 to 100, 0 is no effect, 100 is complete control
[16] = 500 g ai/ha, visual rating after 12 to 14 days, scale 0 to 100 (0 no effect, 100 complete control)

C#CCN(C)C(=O)c1ccnc(NC(=O)c2cc(C(C)(C)C)nn2CC)c1 [Compound 160]
Plant response rating, Barnyardgrass (barnyardgrass [1]; [11]): 100 | Barnyardgrass plant response rating (barnyardgrass [1]; 125 g ai/ha): 0 | Barnyardgrass plant response rating (barnyardgrass [1]; 500 g ai/ha): 10 | Plant response rating, Barnyardgrass (barnyardgrass [1]; [12]): 70 | Plant response rating, Surinam Grass (Surinam grass; [11]): 70 | Surinam Grass plant response rating (Surinam grass; 125 g ai/ha): 10 | Surinam Grass plant response rating (Surinam grass; 500 g ai/ha): 10 | Plant response rating, Surinam Grass (Surinam grass; [12]): 20 | Plant response rating, Cocklebur (cocklebur; [11]): 70 | Cocklebur plant response rating (cocklebur; 125 g ai/ha): 20 | Cocklebur plant response rating (cocklebur; 500 g ai/ha): 90 | Plant response rating, Cocklebur (cocklebur; [12]): 40 | Plant response rating, Corn (corn; [11]): 20 | Corn plant response rating (corn; 125 g ai/ha): 0 | Corn plant response rating (corn; 500 g ai/ha): 0 | Plant response rating, Corn (corn; [12]): 0 | Plant response rating, Crabgrass, Large (large crabgrass; [11]): 80 | Crabgrass, Large plant response rating (large crabgrass; 125 g ai/ha): 0 | Crabgrass, Large plant response rating (large crabgrass; 500 g ai/ha): 0 | Plant response rating, Crabgrass, Large (large crabgrass; [12]): 20 | Plant response rating, Foxtail, Giant (giant foxtail; [11]): 70 | Foxtail, Giant plant response rating (giant foxtail; 125 g ai/ha): 30 | Foxtail, Giant plant response rating (giant foxtail; 500 g ai/ha): 30 | Plant response rating, Foxtail, Giant (giant foxtail; [12]): 10 | Plant response rating, Lambsquarters (lambsquarters; [11]): 100 | Lambsquarters plant response rating (lambsquarters; 125 g ai/ha): 70 | Lambsquarters plant response rating (lambsquarters; 500 g ai/ha): 80 | Plant response rating, Lambsquarters (lambsquarters; [12]): 100 | Plant response rating, Morningglory (morningglory; [11]): 90 | Morningglory plant response rating (morningglory; 125 g ai/ha): 0 | Morningglory plant response rating (morningglory; 500 g ai/ha): 70 | Plant response rating, Morningglory (morningglory; [12]): 20 | Plant response rating, Pigweed (pigweed; [11]): 100 | Pigweed plant response rating (pigweed; 125 g ai/ha): 40 | Pigweed plant response rating (pigweed; 500 g ai/ha): 80 | Plant response rating, Pigweed (pigweed; [12]): 100 | Plant response rating, Rice (rice [2]): 80 | Plant response rating, Velvetleaf (velvetleaf; [11]): 80 | Velvetleaf plant response rating (velvetleaf; 125 g ai/ha): 70 | Velvetleaf plant response rating (velvetleaf; 500 g ai/ha): 70 | Plant response rating, Velvetleaf (velvetleaf; [12]): 60 | Blackgrass plant response rating (blackgrass): 50 | Wheat plant response rating (wheat): 10 | Oat, Wild plant response rating (wild oat; 125 g ai/ha): 10 | Oat, Wild plant response rating (wild oat; 500 g ai/ha): 30 | Rice plant response rating (rice [3]): 90 | Sedge, Umbrella plant response rating [4]: 80 | Ducksalad plant response rating (ducksalad [5]): 90 | Barnyardgrass plant response rating (barnyardgrass [6]): 70 | Rice plant response rating (rice [7]; [13]): 60 | Rice plant response rating (rice [7]; [14]): 70 | Rice plant response rating (rice [7]; [15]): 75 | Plant response rating, Rice (rice [7]; [16]): 95 | Sedge, Umbrella plant response rating [8, 13]: 50 | Sedge, Umbrella plant response rating [8, 14]: 70 | Sedge, Umbrella plant response rating [8, 15]: 80 | Plant response rating, Sedge, Umbrella [8, 16]: 85 | Ducksalad plant response rating (ducksalad [9]; [13]): 75 | Ducksalad plant response rating (ducksalad [9]; [14]): 85 | Ducksalad plant response rating (ducksalad [9]; [15]): 90 | Plant response rating, Ducksalad (ducksalad [9]; [16]): 90 | Barnyardgrass plant response rating (barnyardgrass [10]; [13]): 20 | Barnyardgrass plant response rating (barnyardgrass [10]; 125 g ai/ha, scale of 0 to 100, 0 is no effect, 100 is complete control): 60 | Barnyardgrass plant response rating (barnyardgrass [10]; [15]): 70 | Plant response rating, Barnyardgrass (barnyardgrass [10]; [16]): 85
